# Measurements as given in patent US5382578A, “Methods for treating convulsions and ischemia with substituted dibenzoxazepine compounds” (G. D. Searle & Co., priority 1993, dated 1995).
# “Also recorded” adds a separate entry of the source. Where a name gives a salt, the structure may show the parent alone. Read-outs that look alike come from different tables or passages of the source.
# Legend:
# [1] = molecular target: T1, prostaglandin E2-induced contractions of segments of guinea pig ileum (Cavia porcellus, UniProt A0A286XHJ6); assay: Prostaglandin (PGE) Antagonism Assay, guinea pig ileum; format: cell-based; parameters: key to PGE in guinea pig ileum, activity: Active: the initial concentration used yielded at least a two-fold shift (dose ratio greater than or equal to 2) in the dose response curve for prostaglandin E2
# T1 construct: Segments of ileum about 2 cm long were then cut and mounted in a 10-mL tissue bath; from tissue; host or cells: guinea pig ileum segments
# T1 sequence (A0A286XHJ6 1-405): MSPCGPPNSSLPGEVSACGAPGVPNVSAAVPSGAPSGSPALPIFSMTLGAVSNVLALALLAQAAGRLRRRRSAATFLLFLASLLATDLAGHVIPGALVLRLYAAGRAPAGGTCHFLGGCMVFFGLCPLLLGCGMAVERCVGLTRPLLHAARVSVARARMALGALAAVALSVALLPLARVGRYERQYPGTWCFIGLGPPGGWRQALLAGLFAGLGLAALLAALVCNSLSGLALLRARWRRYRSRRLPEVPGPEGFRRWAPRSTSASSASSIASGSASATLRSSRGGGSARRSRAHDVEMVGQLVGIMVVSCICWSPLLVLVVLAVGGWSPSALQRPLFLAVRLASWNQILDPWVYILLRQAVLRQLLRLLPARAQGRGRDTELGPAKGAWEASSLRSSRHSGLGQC
# Description: In order to determine the effectiveness of several of the compounds of the present invention ("test compounds") as prostaglandin E2 antagonists,a prostaglandin antagonism assay was conducted, as described below, to determine the ability of these compounds to inhibit prostaglandin E2 -induced contractions of segments of guinea pig ileum.
# Male albino guinea pigs weighing 200 to 500 grams were sacrificed by cervical dislocation. The ilea were then quickly removed from the guinea pigs and placed in a modified Tyrode solution, a solution which is known to those skilled in the art, containing one-half of the usual amount of magnesium ions.
# Segments of ileum about 2 cm long were then cut and mounted in a 10-mL tissue bath containing the modified Tyrode solution. The solution was maintained at 37° C. and aerated with a gaseous mixture of 95% oxygen and 5% carbon dioxide. Data for a control prostaglandin E2 dose response curve plotting concentration of prostaglandin E2 versus the intensity of contractions, detected isotonically, was then obtained by experimentally adjusting the dose of the prostaglandin E2 being injected into the tissue bath, in a manner known by those of skill in the art.
# solutions or suspensions containing an initial concentration (3 micromolar) of a test compound in modified Tyrode solution ("test solutions/suspensions") were then separately substituted for the control bath solution. Each test solution/suspension was then kept in constant contact with the ileum tissue, except for brief periods to drain the bath in preparation for rinsing with fresh test solution/suspension. A second prostaglandin E2 dose response curve was then generated for prostaglandin E2 in the presence of a test compound.
# A dose ratio of EC50 doses was then calculated from the results of each test in a manner known by those of skill in the art. A test compound was determined to be "active" if the initial concentration used yielded at least a two-fold shift (dose ratio greater than or equal to 2) in the dose response curve for prostaglandin E2.
# mouse injected with PBQ = assay: Writhing Assay (PBQ-induced writhing in mice); format: in vivo, Charles River male albino mice; settings: for ED50: Mus musculus
# Excerpt: The Writhing Assay is one of the most widely-used experimental procedures for measuring the analgesic activity of different narcotic and nonnarcotic analgesic agents, and involves the continuous, chemically-induced pain of visceral origin to an animal, such as a mouse or rat. [Gyires et al., Arch., int. Pharmacodyn, 267, 131-140 (1984); C. Vander Wende et al., Fed. Proc., 15, 494 (1956); Koster et al., Fed. Proc., 18, 412 (1959); and Witken et al., J. Pharmacol. exp. Ther., 133, 400-408 (1961).] Chemicals which may be used to induce this pain include phenylbenzoquinone (PBQ) and acetic acid. As a result of the chemical irritation to the animal, a characteristic stretching and writhing of the animal (dorsiflexion of the animal's back, extension of its hindlimbs and the strong contraction of its abdominal musculature) will generally occur. […] Drugs which reduce the number of writhes of the animal appear to restore the normal nociceptive threshold of the animal.
# Charles River male albino mice, weighing 20 to 30 grams, were used in this assay.
# Thirty minutes after subcutaneous or intragastric administration to ten mice of 30 mg per kilogram of body weight of a compound of the present invention ("test compound"), […] per 10 g of body weight of a 0,025% w/v solution of PBQ was injected intraperitoneally into each mouse. Ten mice which were given saline in place of a test compound of the invention were used as a control group.
# Five minutes later, each mouse was individually placed into a glass beaker for observation, and the number of writhes occurring during the following ten-minute period was counted.
# A test compound was considered to have produced analgesia in a mouse if, in accordance with the conditions set forth above, and under the test criteria employed for this assay, after the administration of 30 mg per kilogram of body weight of a compound of the present invention to the mouse, the number of writhes elicited by a mouse injected with PBQ was equal to, or less than, one-half the median number of writhes recorded for the saline-treated control group of mice that day, as described by Taber in "Predictive Value of Analgesic Assays in Mice and Rats," Advances in Biochemical Psychopharmacology, 8, 191 (1974).
# The standard initial screening dose of a test compound employed in this assay was […] for both routes of administration. If this initial screening dose of the test compound produced analgesia in seven of ten mice, then the effect of additional doses of the test compound on the writhing response was evaluated, and then the ED50 dose was generally calculated. (The slopes of the dose-response curves for all test compounds analyzed were compared as described by Tallarida and Murray, Manual of Pharmacologic Calculations, Page 11 (Springer Verlag, New York, 1981)).
# [2] = tested on: stimulant actions of prostaglandins on isolated smooth muscle preparations; settings: literature; cited from earlier work
# [3] = tested on: urethane-anesthetized rats; settings: literature; cited from earlier work
# [4] = estimated, assuming Schild slope -1.0, initial concentration 3 micromolar, read-out: PGE in guinea pig ileum, Estimated pA2 value (converted)
# [5] = initial concentration 3 micromolar
# [6] = Schild plot calculation, varying concentrations, read-out: PGE in guinea pig ileum (pA2) (converted)
# [7] = po, intragastric, read-out: Writhing Assay ED50 Dose, I.G.
# [8] = sc, subcutaneous, read-out: Writhing Assay ED50 Dose, S.C.
"Kb [1, 4] [nM]","PGE in guinea pig ileum, activity [1, 5]","Kb [1, 6] [nM]",SMILES,rank order of potency in the Writhing Assay (mouse injected with PBQ),also measured
2510,Active,,"CCS(=O)(=O)CCC(=O)CNC(=O)N1Cc2ccccc2Oc2ccc(Cl)cc21 [Example 8, 8-chloro-N-[4-(ethylsulfonyl)-2-oxobutyl]dibenz[b,f][1,4]oxazepin-10(11H)-carboxamide]",,
,Active,12.6,"O=C(CCSCc1cccs1)NCC(=O)N1Cc2ccccc2Oc2ccc(Cl)cc21 [Example 4, N-[2-(8-chlorodibenz-10-11-dihydrobenz[b,f][1,4]oxazepin-10-yl)-2-oxoethyl]-3-[(2-thenylmethyl)thio]propanamide]",,
2000,Active,,"CCS(=O)(=O)CCC(=O)NCC(=O)N1Cc2ccccc2Oc2ccc(Cl)cc21 [Example 1, N-[2-(8-chloro-10,11-dihydrodibenz[b,f][1,4]oxazepin-10-yl)-2-oxoethyl]-3-(ethylsulfonyl) propanamide]",Example 1>Example 2>Example 3>Example 9; also recorded: the most potent compound of the invention tested in this assay,ED50 (mouse injected with PBQ; [7]): 5.9 mg/kg; ED50 (mouse injected with PBQ; [8]): 11.2 mg/kg
2000,Active,,"O=C(CCc1ccncc1)NCC(=O)N1Cc2ccccc2Oc2ccc(Cl)cc21 [Example 3, N-[2-{8-chloro-10,11-dihydrodibenz[b,f][1,4]oxazepin-10-yl)-2-oxoethyl]-4-pyridinepropanamide, monohydrochloride]",Example 1>Example 2>Example 3>Example 9,ED50 (mouse injected with PBQ; [8]): 16.9 mg/kg

# Second part, the molecule before the results:
SMILES,"Kb [1, 4] [nM]","PGE in guinea pig ileum, activity [1, 5]","Kb [1, 6] [nM]",rank order of potency in the Writhing Assay (mouse injected with PBQ),also measured
"NCCC(=O)NCC(=O)N1Cc2ccccc2Oc2ccc(Cl)cc21 [Example 5, 3-Amino-N-[2-(8-chloro-10,11-dihydrodibenz[b,f][1,4]oxazepin-10-yl)-2-oxoethyl]-propanamide, monohydrochloride]",,Active,,,"PGE in guinea pig ileum, Estimated pA2 value ([1]; estimated, assuming Schild slope -1.0, initial concentration 3 micromolar): 5.5"
"O=C(CCSCc1ccco1)CNC(=O)N1Cc2ccccc2Oc2ccc(Cl)cc21 [Example 9, 8-chloro-N-[4-[(2-furanylmethyl)thio]-2-oxobutyl]dibenz[b,f][1,4]oxazepin-10(11H]-carboxamide]",,Active,63.1,Example 1>Example 2>Example 3>Example 9,
"CN(C)CCSCCC(=O)NCC(=O)N1Cc2ccccc2Oc2ccc(Cl)cc21 [Example 6, N-[2-(8-chloro,10,11-dihydrodibenz[b,f][1,4]oxazepin-10-yl)-2-oxoethyl]-3-[[2-(dimethylamino)ethyl]thio]propanamide, monohydrochloride]",1260,Active,,,
"O=C(CCNCc1cccs1)NCC(=O)N1Cc2ccccc2Oc2ccc(Cl)cc21 [Example 7, N-[2-(8-chloro-10,11-dihydrodibenz[b,f][1,4]oxazepin-10-yl)-2-oxoethyl)-3-[(2-thienylmethyl)amino]propanamide, monohydrochloride]",,Active,316,,
O=C(Cc1ccccc1)NNC(=O)N1Cc2ccccc2Oc2ccc(Cl)cc21 [SC-18637],,,,,effect on stimulant actions of prostaglandins on isolated smooth muscle preparations [2]: inhibit the stimulant actions of prostaglandins on isolated smooth muscle preparations
"O=C(CCSCc1ccco1)NCC(=O)N1Cc2ccccc2Oc2ccc(Cl)cc21 [Example 2, N-[2-(8-chloro-10,11-dihydrodibenz[b,f][1,4]oxazepin-10-yl)-2-oxoethyl]-3[(2-furanylmethyl)thio]propanamide]",,Active,10,Example 1>Example 2>Example 3>Example 9,ED50 (mouse injected with PBQ; [7]): 13.5 mg/kg; ED50 (mouse injected with PBQ; [8]): 14.8 mg/kg
CC(=O)NNC(=O)N1Cc2ccccc2Oc2ccc(Cl)cc21 [SC-19220],,,,,effect on stimulant actions of prostaglandins on isolated smooth muscle preparations [2]: inhibit the stimulant actions of prostaglandins on isolated smooth muscle preparations; effect on bladder capacity [3]: increased the bladder capacity; effect on voiding efficiency of micturition [3]: reduced the voiding efficiency of micturition
